In ChEMBL document CHEMBL5653615 (J Biol Chem, 2013):

Legend:
[1] = molecular target: Leukocyte tyrosine kinase receptor (Homo sapiens) (UniProt P29376); assay: Inhibition of human LTK at 18.6 nM by HotSpot assay relative to control
[2] = molecular target: Angiopoietin-1 receptor (Homo sapiens) (UniProt Q02763); assay: Inhibition of human TEK at 18.6 nM by HotSpot assay relative to control
[3] = molecular target: Vascular endothelial growth factor receptor 3 (Homo sapiens) (UniProt P35916); assay: Inhibition of human FLT4 at 18.6 nM by HotSpot assay relative to control
[4] = molecular target: T1, Serine/threonine-protein kinase Sgk3 (Homo sapiens) (UniProt Q96BR1); assay: Inhibition of human SGKL at 18.6 nM by HotSpot assay relative to control
T1 sequence (whole entry): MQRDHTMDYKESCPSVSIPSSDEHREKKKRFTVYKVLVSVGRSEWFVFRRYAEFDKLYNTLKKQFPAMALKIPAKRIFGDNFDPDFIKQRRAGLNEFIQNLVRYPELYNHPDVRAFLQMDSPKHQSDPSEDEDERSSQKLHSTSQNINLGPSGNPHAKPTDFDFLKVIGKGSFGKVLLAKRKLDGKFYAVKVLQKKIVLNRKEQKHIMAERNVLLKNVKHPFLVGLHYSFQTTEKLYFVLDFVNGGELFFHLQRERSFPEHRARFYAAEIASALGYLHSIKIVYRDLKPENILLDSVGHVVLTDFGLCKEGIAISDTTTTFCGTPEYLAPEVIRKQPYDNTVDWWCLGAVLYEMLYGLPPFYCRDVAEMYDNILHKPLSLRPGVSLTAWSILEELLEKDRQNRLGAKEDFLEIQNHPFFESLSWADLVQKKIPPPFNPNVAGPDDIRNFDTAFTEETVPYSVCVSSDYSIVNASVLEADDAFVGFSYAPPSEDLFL

[5] = molecular target: T2, Serine/threonine-protein kinase TBK1 (Homo sapiens) (UniProt Q9UHD2); assay: Inhibition of human TBK1 at 18.6 nM by HotSpot assay relative to control
T2 sequence (whole entry): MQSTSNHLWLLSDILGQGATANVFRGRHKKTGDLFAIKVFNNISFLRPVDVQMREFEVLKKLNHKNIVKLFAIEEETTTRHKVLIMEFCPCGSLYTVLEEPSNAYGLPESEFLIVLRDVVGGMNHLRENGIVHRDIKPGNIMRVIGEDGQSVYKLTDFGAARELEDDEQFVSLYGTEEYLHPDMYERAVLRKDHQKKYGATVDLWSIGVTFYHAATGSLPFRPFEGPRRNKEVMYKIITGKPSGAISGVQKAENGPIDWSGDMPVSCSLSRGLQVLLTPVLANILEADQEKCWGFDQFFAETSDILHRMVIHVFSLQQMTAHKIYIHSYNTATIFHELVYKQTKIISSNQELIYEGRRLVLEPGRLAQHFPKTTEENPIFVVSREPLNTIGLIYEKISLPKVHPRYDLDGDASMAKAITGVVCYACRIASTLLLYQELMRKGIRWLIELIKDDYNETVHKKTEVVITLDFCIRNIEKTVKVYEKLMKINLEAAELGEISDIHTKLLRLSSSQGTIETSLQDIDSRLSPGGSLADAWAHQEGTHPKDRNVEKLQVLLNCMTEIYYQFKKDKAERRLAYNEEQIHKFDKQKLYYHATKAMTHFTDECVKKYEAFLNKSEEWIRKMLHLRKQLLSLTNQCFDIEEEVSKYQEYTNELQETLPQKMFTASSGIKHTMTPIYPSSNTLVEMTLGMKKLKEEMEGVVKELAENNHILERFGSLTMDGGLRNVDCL

[6] = molecular target: T3, Serine/threonine-protein kinase A-Raf (Homo sapiens) (UniProt P10398); assay: Inhibition of human ARAF at 1.82 nM by HotSpot assay relative to control
T3 sequence (whole entry): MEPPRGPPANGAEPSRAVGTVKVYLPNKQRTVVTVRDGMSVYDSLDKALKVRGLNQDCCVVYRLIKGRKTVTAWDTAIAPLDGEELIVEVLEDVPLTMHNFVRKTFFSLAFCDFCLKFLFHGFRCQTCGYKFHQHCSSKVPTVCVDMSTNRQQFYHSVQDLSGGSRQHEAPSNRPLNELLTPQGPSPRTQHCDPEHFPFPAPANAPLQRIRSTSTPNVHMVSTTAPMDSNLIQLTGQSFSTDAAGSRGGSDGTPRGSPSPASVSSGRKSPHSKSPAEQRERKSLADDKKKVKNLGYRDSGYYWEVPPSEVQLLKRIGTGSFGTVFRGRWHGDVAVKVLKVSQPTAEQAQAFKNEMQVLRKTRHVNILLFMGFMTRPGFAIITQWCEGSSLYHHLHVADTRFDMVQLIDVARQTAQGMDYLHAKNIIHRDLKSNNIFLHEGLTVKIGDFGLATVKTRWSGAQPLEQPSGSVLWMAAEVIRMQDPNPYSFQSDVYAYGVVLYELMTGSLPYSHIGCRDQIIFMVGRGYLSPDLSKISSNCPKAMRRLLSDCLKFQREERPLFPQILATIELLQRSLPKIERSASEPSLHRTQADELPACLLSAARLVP

[7] = molecular target: Mitogen-activated protein kinase 1 (Homo sapiens) (UniProt P28482); assay: Inhibition of human ERK2 at 1.82 nM by HotSpot assay relative to control
[8] = molecular target: Mitogen-activated protein kinase kinase kinase 7 (Homo sapiens) (UniProt O43318); details: dose 1.82 nM
Description: Inhibition of human TAK1 at 1.82 nM by HotSpot assay relative to control

[9] = molecular target: T4, Megakaryocyte-associated tyrosine-protein kinase (Homo sapiens) (UniProt P42679); assay: Inhibition of human CTK at 1.82 nM by HotSpot assay relative to control
T4 sequence (whole entry): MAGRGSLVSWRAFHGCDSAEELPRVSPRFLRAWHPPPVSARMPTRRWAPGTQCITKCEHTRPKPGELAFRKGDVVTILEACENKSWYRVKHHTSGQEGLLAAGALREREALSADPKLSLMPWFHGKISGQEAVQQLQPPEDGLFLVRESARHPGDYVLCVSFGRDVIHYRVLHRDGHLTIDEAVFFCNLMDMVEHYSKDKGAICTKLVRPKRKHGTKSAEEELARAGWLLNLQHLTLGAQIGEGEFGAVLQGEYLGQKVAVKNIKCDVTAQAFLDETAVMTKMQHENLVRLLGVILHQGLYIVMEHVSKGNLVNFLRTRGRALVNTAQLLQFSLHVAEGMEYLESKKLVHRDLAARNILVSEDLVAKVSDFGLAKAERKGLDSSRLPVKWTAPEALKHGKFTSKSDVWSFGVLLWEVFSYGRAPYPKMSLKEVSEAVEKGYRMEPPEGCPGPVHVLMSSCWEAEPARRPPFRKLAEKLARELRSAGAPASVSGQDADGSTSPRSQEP

Vascular endothelial growth factor receptor 3 (Homo sapiens), sequence (P35916 whole entry): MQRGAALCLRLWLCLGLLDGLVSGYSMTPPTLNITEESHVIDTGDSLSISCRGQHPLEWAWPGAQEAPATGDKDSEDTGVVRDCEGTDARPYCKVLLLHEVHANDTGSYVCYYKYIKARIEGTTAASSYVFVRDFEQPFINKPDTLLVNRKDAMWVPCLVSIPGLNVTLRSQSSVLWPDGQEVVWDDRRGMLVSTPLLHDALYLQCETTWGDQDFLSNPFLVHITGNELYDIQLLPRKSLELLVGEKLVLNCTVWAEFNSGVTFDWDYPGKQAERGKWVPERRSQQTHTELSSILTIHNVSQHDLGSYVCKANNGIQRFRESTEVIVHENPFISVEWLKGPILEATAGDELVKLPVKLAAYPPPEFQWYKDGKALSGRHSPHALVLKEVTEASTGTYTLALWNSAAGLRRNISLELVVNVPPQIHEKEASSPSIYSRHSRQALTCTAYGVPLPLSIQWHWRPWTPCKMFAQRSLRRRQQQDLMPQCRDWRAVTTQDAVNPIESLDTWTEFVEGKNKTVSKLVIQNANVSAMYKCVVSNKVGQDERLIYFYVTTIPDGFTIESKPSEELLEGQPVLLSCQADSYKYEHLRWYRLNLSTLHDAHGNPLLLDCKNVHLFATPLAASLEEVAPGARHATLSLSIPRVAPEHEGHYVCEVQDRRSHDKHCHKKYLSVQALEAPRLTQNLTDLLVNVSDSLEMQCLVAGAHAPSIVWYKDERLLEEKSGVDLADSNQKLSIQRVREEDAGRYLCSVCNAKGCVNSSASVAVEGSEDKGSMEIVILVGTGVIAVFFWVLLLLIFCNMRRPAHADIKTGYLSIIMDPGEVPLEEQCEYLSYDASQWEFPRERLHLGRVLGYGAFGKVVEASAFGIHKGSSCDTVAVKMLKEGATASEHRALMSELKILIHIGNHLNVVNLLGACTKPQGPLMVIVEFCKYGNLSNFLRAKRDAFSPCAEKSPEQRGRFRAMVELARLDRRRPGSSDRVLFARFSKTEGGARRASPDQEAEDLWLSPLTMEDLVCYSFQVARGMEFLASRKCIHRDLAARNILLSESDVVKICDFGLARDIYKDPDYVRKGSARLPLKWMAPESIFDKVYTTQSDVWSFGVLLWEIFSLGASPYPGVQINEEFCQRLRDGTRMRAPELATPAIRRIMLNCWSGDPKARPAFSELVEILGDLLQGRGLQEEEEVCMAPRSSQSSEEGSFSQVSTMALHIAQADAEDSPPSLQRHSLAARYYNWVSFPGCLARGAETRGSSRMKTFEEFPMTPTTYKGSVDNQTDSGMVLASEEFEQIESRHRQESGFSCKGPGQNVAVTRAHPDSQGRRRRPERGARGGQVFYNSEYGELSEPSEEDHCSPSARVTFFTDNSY
Leukocyte tyrosine kinase receptor (Homo sapiens), sequence (P29376 whole entry): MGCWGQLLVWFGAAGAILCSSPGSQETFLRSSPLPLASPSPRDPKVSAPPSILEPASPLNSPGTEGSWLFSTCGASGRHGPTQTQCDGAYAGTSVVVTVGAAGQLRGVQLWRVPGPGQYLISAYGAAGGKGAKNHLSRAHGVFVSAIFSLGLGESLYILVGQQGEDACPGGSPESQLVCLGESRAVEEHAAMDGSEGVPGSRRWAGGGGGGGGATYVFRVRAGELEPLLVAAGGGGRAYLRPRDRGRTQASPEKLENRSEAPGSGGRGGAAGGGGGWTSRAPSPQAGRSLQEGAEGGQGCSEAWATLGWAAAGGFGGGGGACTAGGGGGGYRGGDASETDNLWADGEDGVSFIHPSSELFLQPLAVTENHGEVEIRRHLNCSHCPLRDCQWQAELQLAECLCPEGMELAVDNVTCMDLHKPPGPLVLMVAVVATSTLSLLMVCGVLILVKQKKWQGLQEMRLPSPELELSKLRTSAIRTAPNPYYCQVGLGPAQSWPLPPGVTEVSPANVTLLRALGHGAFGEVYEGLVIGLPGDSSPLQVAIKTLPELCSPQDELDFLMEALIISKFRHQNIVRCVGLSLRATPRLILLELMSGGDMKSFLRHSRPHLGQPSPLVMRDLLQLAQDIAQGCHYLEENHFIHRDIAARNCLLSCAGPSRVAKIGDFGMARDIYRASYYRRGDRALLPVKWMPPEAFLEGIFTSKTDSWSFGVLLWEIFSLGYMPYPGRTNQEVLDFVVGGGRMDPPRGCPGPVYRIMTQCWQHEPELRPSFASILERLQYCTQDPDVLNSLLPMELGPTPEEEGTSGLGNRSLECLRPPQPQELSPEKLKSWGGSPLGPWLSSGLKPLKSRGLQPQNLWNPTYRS
Angiopoietin-1 receptor (Homo sapiens), sequence (Q02763 whole entry): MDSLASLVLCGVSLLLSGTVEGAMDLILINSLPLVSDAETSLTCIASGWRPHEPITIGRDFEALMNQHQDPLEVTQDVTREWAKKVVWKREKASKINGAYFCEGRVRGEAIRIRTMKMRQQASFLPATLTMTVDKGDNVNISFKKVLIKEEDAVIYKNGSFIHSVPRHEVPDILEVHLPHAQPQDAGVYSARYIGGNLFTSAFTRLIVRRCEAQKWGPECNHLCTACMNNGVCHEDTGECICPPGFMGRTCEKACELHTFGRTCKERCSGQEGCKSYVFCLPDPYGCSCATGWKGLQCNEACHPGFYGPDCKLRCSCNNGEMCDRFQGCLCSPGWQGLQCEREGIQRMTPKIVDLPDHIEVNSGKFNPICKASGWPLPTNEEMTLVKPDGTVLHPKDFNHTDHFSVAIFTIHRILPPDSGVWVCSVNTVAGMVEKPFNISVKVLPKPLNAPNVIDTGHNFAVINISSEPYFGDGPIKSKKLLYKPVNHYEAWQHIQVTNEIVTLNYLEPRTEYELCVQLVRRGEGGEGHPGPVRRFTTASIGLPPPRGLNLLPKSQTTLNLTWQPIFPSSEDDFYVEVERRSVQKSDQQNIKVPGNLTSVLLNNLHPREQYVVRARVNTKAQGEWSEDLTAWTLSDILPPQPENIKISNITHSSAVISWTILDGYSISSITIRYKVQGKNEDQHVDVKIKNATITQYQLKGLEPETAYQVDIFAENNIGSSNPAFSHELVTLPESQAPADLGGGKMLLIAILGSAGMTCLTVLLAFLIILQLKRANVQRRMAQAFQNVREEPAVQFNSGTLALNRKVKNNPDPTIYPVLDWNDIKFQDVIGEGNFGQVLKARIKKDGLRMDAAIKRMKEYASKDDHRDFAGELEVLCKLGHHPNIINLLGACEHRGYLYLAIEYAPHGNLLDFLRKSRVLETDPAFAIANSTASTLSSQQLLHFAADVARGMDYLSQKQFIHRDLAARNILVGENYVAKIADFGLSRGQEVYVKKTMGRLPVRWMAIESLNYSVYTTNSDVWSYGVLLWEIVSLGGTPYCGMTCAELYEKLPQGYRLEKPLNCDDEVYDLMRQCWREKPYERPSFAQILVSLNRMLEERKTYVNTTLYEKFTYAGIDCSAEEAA
Mitogen-activated protein kinase kinase kinase 7 (Homo sapiens), sequence (O43318 whole entry, looked up): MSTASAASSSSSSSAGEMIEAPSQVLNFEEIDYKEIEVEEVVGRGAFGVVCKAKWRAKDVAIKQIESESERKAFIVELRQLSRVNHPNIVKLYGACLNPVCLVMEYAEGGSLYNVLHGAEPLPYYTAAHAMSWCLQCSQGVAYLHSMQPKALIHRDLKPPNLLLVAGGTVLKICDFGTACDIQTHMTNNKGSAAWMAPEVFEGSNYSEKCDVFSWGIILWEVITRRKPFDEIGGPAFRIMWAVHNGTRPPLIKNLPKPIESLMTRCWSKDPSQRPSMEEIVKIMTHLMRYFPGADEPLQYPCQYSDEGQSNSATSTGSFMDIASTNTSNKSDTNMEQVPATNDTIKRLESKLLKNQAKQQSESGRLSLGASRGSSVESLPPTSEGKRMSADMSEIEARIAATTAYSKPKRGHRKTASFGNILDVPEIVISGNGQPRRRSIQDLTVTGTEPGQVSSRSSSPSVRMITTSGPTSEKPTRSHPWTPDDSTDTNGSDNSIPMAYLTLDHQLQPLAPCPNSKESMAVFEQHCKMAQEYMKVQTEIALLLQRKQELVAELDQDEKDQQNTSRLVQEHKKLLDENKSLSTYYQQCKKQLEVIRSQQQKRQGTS
Mitogen-activated protein kinase 1 (Homo sapiens), sequence (P28482 whole entry): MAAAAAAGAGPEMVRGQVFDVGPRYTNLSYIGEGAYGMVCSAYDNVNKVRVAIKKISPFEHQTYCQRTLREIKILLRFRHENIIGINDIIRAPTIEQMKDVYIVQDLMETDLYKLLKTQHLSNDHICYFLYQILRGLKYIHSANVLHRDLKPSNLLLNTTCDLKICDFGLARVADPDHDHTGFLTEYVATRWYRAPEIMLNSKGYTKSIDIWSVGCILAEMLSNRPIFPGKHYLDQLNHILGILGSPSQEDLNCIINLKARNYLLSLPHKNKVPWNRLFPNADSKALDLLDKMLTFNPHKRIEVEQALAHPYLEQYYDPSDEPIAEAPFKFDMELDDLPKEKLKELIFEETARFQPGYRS

Row | inhibition [1] [%] | inhibition [2] [%] | inhibition [3] [%] | inhibition [4] [%] | inhibition [5] [%] | inhibition [6] [%] | inhibition [7] [%] | inhibition [8] [%] | inhibition [9] [%] | SMILES
1 | -0.44 | 2.86 | -2.25 | 0.11 | 5.59 | – | – | – | – | C[C@]1(O)C[C@@H](c2nc(-c3ccc4ccc(-c5ccccc5)nc4c3)c3c(N)nccn32)C1
2 | – | – | – | – | – | 5.85 | -3.61 | 3.35 | -1.93 | C[C@@]1(C(=O)Nc2ccc(F)nc2)CCCN1c1nc(Nc2cc(C3CC3)n[nH]2)c2cccn2n1
